Results published in ChEMBL document CHEMBL1201862, “PubChem BioAssay data set” (2004).
Activity calls are given as the source filed them.

Experiments:
[1] = biological target: ATP-binding cassette sub-family B member 6 (Homo sapiens, UniProt Q9NP58); experiment: ABCB6 transporter inhibitors, dose response, K562-ABCB6 cells, flow cytometry, cherry pick 1 (AID 623955); assay type: functional; conditions: read-out: EC50_MICROM
Protein RecA = biological target: T1, Protein RecA (Mycobacterium tuberculosis, UniProt P9WHJ3); experiment: Fluorescence Cell-Free Homogeneous Dose Retest to Identify Inhibitors of RecA-Intein Splicing Activity. [Related pubchem assays (depositor defined):AID2097, AID2223, AID489010, AID492950]; assay type: functional
T1 sequence (P9WHJ3 whole entry): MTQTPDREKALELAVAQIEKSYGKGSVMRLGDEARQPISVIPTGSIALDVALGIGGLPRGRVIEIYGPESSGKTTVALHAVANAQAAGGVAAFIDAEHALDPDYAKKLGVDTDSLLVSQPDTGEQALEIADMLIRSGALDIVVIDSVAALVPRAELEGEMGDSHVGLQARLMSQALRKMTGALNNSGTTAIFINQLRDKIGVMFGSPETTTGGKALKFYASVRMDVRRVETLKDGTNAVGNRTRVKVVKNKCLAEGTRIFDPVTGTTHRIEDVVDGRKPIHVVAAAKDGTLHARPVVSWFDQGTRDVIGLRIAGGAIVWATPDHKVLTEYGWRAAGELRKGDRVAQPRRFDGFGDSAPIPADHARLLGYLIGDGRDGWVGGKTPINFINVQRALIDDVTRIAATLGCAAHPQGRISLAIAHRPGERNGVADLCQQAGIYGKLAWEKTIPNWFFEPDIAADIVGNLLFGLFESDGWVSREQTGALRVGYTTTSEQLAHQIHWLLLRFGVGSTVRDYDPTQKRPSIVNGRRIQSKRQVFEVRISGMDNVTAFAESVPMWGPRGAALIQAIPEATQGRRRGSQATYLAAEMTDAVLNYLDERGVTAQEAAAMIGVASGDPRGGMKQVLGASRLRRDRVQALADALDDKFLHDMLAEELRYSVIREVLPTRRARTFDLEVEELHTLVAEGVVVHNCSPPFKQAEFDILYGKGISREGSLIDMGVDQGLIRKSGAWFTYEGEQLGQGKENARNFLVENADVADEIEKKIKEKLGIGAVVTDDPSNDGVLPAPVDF

[2] = biological target: Heat shock protein HSP 90-alpha (Homo sapiens, UniProt P07900); assay type: functional, organism-based
[3] = HepG2 cell cytotoxicity, dose response, cytotoxicity control for Shn3 inhibitor project, CellTiter-Glo, cherry-picked (AID 624134); assay type: functional, cell-based
[4] = Shn3 3'UTR reporter inhibitors, dose response, cell-based, Clone20 osteoblasts, firefly luciferase, cherry-picked (AID 624132); assay type: functional;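 note: firefly luciferase luminescence from reporter carrying the Shn3 3'UTR in osteoblasts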
[5] = biological target: T2, Replicative DNA helicase DnaB (Mycobacterium tuberculosis, UniProt P9WMR3); experiment: DnaB intein splicing inhibitors, dose response, biochemical, cell-free fluorescence (AID 449749); assay type: functional
T2 sequence (P9WMR3 whole entry): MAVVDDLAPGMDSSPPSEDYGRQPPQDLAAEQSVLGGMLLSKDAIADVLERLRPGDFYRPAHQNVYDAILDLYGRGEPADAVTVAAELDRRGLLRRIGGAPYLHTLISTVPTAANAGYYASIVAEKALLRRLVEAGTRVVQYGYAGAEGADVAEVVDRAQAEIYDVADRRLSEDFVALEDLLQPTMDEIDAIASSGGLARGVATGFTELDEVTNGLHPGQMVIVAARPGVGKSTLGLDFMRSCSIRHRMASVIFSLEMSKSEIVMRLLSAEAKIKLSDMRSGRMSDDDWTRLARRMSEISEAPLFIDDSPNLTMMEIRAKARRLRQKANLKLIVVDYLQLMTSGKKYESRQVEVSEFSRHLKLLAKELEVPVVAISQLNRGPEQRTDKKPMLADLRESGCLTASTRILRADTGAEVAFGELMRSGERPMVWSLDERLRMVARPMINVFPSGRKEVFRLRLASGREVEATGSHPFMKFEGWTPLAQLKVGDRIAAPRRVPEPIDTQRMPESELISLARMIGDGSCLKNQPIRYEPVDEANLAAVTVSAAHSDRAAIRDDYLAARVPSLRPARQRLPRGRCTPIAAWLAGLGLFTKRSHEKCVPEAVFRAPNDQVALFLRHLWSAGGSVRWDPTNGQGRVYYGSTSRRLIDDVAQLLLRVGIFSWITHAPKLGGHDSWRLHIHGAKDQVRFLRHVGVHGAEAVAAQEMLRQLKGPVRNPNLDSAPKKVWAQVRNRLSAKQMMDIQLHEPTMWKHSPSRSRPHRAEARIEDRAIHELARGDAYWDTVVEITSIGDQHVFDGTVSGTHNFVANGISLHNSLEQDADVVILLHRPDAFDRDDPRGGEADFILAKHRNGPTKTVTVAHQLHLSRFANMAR

[6] = biological target: NACHT, LRR and PYD domains-containing protein 3 (Homo sapiens, UniProt Q96P20); experiment: NALP3 inhibitors in yeast, dose response, luminescent (AID 488799); assay type: functional
Beta Lactamase = Beta Lactamase (Pseudomonas aeruginosa, UniProt Q932Y6); experiment: beta-lactamase reporter inhibitor potency, dose response, artefact control for TLR9-MyD88 binding inhibitor project, BLA reporter cells, FRET fluorescence (AID 588341); assay type: cell-based;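 note: cell based assay in CHO-K1 cells stably expressing beta-lactamase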
[7] = control 3'UTR Renilla luciferase suppression, dose response, counter-screen for Shn3 inhibitor project, cell-based, Clone20-Shn3RL, cherry-picked (AID 624133); assay type: functional
CHO = experiment: cytotoxicity in TLR9-MyD88 CHO cells, dose response, cytotoxicity control for TLR9-MyD88 binding inhibitor project, cell-based, luminescence (AID 588339); assay type: functional, hamster; conditions: Cricetulus griseus;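 note: CHO cells stably coexpressing TLR9 and MyD88 fusions from primary screen; compound exposure lasted 48 hours before viability readout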
INS1 [8] = experiment: beta cell apoptosis inhibitors, cytokine rescue, dose response, luminescence, retest (AID 449756); assay type: functional, cell-based; conditions: Rattus norvegicus;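 note: cell death triggered by IL-1 beta plus TNF-alpha plus IFN-gamma mixture; protective hits raise ATP signal compared with cytokine alone wells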
[9] = Luminescence Cell-Based Dose Retest to Confirm Inhibitors of Cancer Stem Cells. [Related pubchem assays (depositor defined):AID2717, AID2721]; assay type: functional; conditions: Homo sapiens
[10] = cytotoxicity in HMLE control line with eGFP shRNA, dose response, counter-screen for HMLE_sh_ECad selective toxicity project, cell-based, HMLE_sh_eGFP, luminescence (AID 463074); assay type: functional, Homo sapiens;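 note: HMLE human mammary epithelial cells expressing control shRNA against eGFP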
[11] = Luminescence Cell-Based Dose Response HTS to Identify Activators of Luciferase Translation or Activity in H4 […] Cells. [Related pubchem assays: 1829 (Project Summary), 1814 (Primary HTS)]; assay type: functional
[12] = Luminescence Cell-Based Dose Confirmation HTS to Identify Activators of 5'UTR Stem-Loop Driven Alpha-Synuclein mRNA Translation in H4 Neuroglioblastoma Cells. [Related pubchem assays: 1829 (Project Summary), 1814 (Primary HTS)]; assay type: functional
H4 = experiment: Luminescence Cell-Based Dose Response HTS to Identify Activators of 5'UTR Stem-Loop Driven Prion Protein mRNA Translation in H4 Neuroglioblastoma Cells. [Related pubchem assays: 1829 (Project Summary), 1814 (Primary HTS)]; assay type: functional; conditions: Homo sapiens
HeLa = experiment: HeLa cell cytotoxicity, dose response, cytotoxicity control for MITF activator project, CellTiter-Glo luminescence, cherry-pick samples (AID 540259); assay type: functional, cell-based; conditions: Homo sapiens
CAAX prenyl protease 2 = CAAX prenyl protease 2 (Homo sapiens, UniProt Q9Y256); experiment: human Rce1 protease inhibitors, dose response, biochemical, yeast membranes, quenched-peptide fluorescence, cherry-pick (AID 588849)
[13] = biological target: Beta-adrenergic receptor kinase 1 (Homo sapiens, UniProt P25098); experiment: aptamer displacement from bead-bound GRK2 – biochemical, cherry pick 1, bead flow cytometry, dose response (AID 504500)
HEK293 = experiment: cells; assay type: functional, cell-based; conditions: Homo sapiens
[14] = biological target: Nuclear receptor subfamily 0 group B member 1 (Homo sapiens, UniProt P51843); experiment: Luminescence-based cell-based high throughput dose response assay for inhibitors of the orphan nuclear receptor subfamily 0, group B, member 1 (DAX1; NR0B1). [Related pubchem assays (depositor defined):AID504766, AID504790]; assay type: functional
[15] = biological target: T3, Voltage-gated N-type calcium channel alpha-1B subunit/Amyloid beta A4 precursor protein-binding family A member 1 (Homo sapiens, UniProt Q00975+Q02410); assay type: protein assay
[16] = biological target: T3, Voltage-gated N-type calcium channel alpha-1B subunit/Amyloid beta A4 precursor protein-binding family A member 1; assay type: protein assay; remark: listed apart in the source
[17] = biological target: T4, Apoptotic protease-activating factor 1 (Homo sapiens, UniProt O14727); experiment: activation of Apaf-1 mediated apoptosis – fluorescent, uHTS hits, dose response (AID 588554); assay type: functional
T4 sequence (O14727 whole entry): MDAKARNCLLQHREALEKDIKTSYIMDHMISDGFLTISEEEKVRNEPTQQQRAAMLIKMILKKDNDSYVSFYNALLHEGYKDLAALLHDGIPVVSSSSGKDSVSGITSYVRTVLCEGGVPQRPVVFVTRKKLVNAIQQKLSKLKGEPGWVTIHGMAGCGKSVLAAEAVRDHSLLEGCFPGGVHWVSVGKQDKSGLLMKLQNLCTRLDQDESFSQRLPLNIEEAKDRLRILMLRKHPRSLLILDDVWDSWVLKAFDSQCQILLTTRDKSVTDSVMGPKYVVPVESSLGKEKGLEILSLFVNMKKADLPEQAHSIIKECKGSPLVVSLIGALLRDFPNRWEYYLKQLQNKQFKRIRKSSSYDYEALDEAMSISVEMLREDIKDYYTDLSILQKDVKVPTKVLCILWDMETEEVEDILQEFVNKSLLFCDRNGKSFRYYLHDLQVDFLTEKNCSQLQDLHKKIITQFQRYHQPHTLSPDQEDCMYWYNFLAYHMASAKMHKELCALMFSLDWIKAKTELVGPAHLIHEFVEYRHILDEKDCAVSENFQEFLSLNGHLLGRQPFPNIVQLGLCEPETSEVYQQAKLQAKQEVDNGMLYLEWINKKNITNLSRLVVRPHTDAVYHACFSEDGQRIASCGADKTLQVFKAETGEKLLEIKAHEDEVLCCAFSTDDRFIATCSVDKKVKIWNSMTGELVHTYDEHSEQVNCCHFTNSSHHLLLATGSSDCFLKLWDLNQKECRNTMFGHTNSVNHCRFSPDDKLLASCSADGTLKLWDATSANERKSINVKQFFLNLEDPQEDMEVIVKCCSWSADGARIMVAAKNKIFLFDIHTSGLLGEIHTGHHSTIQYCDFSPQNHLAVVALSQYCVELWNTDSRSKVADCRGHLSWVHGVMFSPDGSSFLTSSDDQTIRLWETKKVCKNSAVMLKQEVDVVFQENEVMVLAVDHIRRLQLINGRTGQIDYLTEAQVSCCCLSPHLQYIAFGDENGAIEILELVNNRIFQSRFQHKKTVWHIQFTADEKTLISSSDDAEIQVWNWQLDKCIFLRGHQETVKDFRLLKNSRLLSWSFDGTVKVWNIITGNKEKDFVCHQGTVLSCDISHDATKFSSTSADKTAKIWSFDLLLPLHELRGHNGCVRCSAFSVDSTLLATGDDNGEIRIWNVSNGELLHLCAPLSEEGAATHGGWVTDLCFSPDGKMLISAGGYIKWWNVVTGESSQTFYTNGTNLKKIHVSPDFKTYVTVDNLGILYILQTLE

INS1 [18] = experiment: protection from cytokine-induced mitochondrial depolarization, dose response, cell-based, INS-1E, JC-1 fluorescence ratio, dry powder (AID 488931); assay type: functional; conditions: Rattus norvegicus
INS1 [19] = experiment: protection of INS-1E cells from cytokine death, dose response, ATP luminescence, dry powder (AID 488844); assay type: functional, cell-based; conditions: Rattus norvegicus
INS1 [20] = experiment: caspase-3/7 inhibition in cytokine-treated INS-1E, dose response, beta-cell apoptosis inhibitor project, cell-based, caspase luminescence, dry powder (AID 488848); assay type: functional; conditions: Rattus norvegicus

T3 sequence (Q00975 whole entry): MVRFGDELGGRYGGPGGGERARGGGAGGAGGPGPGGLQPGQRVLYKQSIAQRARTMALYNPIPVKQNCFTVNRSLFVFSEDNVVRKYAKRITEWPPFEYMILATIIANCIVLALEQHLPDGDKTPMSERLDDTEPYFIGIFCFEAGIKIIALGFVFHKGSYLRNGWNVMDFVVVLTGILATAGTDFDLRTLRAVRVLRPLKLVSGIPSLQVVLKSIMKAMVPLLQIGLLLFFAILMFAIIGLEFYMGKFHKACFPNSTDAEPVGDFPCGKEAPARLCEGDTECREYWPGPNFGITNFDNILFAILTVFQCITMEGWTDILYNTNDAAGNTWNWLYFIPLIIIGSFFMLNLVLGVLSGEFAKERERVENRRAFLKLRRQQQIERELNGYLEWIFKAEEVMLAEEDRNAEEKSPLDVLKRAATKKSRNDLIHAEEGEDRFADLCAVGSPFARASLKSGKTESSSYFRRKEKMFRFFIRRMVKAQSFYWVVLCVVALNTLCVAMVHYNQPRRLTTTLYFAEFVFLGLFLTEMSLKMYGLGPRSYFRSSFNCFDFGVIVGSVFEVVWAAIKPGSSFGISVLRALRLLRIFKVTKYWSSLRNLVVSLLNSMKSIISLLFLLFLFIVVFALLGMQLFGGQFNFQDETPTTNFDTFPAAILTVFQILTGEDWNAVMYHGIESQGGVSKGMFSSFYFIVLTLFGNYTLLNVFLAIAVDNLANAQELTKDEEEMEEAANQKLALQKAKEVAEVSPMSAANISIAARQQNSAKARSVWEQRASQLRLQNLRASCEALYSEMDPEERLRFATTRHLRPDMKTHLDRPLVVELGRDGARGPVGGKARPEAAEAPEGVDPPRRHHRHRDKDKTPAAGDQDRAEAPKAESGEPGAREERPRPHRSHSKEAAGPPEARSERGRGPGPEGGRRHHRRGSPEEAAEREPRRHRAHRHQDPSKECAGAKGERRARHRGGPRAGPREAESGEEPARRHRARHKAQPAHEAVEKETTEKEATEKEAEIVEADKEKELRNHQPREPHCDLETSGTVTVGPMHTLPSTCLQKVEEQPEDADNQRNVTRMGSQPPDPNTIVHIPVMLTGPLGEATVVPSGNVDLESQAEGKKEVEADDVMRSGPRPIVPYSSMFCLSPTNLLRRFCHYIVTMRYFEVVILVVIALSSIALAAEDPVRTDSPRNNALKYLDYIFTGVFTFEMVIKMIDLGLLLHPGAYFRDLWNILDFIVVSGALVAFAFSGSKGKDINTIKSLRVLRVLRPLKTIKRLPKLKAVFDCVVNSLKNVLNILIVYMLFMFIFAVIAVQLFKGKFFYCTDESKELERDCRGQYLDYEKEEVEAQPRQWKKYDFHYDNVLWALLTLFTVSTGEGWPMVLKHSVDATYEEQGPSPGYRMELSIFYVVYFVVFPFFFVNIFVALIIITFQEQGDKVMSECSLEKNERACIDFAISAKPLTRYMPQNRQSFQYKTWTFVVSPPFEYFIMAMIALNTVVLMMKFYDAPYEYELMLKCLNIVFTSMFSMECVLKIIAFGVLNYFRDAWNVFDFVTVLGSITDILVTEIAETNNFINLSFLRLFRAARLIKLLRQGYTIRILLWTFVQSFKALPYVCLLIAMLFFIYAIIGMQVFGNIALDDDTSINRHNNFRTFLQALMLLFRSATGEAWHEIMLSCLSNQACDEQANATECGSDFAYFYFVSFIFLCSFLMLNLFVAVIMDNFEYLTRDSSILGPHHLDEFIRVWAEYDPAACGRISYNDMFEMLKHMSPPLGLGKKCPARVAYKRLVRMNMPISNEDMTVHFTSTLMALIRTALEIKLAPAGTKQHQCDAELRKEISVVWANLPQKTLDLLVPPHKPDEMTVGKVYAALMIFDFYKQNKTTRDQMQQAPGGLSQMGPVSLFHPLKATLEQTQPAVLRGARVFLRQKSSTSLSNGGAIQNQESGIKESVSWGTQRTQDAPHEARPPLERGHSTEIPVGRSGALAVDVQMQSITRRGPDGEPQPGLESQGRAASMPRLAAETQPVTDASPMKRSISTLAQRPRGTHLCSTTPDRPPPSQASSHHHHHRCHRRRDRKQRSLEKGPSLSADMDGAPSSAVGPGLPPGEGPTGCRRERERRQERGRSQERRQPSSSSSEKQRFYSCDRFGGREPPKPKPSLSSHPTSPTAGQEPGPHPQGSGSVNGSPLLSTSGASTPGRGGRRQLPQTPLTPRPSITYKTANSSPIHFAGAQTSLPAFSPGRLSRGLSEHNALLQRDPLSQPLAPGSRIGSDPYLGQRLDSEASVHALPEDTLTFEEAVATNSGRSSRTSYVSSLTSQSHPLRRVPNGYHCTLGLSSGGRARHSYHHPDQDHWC
T3 sequence (Q02410 whole entry): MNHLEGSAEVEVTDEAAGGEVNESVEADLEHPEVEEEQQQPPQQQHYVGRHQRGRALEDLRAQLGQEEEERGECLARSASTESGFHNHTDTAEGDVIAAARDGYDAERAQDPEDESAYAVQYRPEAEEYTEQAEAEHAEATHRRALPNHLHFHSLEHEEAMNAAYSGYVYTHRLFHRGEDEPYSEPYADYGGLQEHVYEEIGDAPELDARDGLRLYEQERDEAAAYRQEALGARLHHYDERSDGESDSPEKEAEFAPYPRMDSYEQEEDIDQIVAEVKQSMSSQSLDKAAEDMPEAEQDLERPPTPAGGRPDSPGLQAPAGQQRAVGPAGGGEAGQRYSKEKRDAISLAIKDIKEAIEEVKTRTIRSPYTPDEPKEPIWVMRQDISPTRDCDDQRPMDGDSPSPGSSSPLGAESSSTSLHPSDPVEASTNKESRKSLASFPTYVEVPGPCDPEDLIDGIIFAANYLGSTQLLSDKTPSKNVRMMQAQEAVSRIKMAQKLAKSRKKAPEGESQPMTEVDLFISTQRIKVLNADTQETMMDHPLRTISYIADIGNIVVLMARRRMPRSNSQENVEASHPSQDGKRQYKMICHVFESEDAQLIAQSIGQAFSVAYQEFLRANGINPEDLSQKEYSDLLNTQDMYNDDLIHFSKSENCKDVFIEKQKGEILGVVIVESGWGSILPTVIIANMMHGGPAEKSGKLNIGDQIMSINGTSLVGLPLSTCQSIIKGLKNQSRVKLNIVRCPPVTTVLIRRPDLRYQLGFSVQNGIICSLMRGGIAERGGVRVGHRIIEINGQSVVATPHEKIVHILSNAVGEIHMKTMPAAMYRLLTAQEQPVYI
Sequence of Nuclear receptor subfamily 0 group B member 1 (P51843 whole entry): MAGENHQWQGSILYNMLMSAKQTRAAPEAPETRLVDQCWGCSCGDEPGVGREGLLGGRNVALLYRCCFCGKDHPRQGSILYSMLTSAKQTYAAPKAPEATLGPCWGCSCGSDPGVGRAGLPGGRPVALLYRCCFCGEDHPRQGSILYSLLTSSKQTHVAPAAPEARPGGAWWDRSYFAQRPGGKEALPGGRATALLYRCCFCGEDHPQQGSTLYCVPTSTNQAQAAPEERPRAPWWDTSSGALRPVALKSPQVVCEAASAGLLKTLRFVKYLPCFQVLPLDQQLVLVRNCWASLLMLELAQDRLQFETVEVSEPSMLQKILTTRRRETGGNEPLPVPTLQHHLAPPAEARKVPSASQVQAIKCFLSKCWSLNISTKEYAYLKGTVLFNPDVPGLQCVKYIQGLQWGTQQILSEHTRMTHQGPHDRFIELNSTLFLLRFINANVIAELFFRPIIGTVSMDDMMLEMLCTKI
Sequence of Beta Lactamase (Q932Y6 whole entry): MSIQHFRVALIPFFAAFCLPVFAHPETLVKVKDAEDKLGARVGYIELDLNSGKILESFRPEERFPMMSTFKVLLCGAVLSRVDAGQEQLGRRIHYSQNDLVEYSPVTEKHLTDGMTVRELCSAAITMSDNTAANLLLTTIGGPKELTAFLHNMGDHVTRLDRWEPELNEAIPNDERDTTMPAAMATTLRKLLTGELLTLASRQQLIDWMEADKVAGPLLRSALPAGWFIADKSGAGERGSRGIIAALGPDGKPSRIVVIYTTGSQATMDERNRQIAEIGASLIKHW
Sequence of Beta-adrenergic receptor kinase 1 (P25098 whole entry): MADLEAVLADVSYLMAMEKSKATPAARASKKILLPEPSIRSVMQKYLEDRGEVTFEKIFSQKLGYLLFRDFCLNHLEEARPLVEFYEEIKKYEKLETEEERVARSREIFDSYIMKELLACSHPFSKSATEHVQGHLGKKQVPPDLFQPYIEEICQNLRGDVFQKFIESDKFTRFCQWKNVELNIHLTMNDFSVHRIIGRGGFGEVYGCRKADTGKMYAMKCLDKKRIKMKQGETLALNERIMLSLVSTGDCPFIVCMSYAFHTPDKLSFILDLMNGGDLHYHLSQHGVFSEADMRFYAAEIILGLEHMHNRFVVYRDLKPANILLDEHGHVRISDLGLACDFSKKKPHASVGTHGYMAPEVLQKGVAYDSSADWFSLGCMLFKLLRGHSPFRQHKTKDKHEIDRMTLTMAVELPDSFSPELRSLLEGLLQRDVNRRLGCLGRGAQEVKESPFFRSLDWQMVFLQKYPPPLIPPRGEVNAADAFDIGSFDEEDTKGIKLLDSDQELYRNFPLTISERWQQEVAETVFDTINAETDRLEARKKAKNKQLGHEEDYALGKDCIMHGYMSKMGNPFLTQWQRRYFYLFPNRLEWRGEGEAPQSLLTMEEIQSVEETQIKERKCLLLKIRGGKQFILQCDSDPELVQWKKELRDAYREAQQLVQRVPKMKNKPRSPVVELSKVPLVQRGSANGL
Sequence of CAAX prenyl protease 2 (Q9Y256 whole entry): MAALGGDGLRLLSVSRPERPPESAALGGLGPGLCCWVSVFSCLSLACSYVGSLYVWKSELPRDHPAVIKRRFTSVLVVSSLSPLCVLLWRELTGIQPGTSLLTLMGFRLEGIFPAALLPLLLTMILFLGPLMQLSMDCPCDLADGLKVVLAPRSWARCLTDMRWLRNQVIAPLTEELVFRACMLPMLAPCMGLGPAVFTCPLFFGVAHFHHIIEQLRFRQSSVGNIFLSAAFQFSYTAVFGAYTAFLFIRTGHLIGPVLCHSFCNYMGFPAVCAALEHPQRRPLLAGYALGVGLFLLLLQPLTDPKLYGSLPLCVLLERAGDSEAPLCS

Cc1ccc(NC(=O)c2nc(S(=O)(=O)Cc3ccccc3)ncc2Cl)cc1
EC50 [1]: 34.7 µM (active) | EC50 (Protein RecA): 0.88 µM (active) | AC50 [2]: 3.21 µM (active) | AC50 [3]: 24.6 µM (active) | AC50 [4]: 3.42 µM (active) | AC50 [5]: 23 µM (active) | IC50 [6]: 3.58 µM (active) | IC50 (Beta Lactamase): 8.3 µM (active) | AC50 [7]: 6.01 µM (active) | IC50 (CHO): 3.31 µM (active) | AC50 (INS1 [8]): 9.27 µM (active) | AC50 [9]: 2.57 µM (active)

C=CC[n+]1c(-c2ccc(OCC)cc2)csc1NNC(=O)Nc1ccccc1
AC50 [10]: 24.7 µM (active) | AC50 (INS1 [8]): 6.63 µM (active) | AC50 [9]: 88.4 µM (active)

COc1ccc(/C(O)=C/C=N/c2cccc(C)n2)cc1OC
EC50 [11]: 0.122 µM (active) | EC50 [12]: 0.146 µM (active) | EC50 (H4): 48.3 µM (active) | AC50 (HeLa): 50.8 µM (active)

COc1cccc(/C=C/C(=O)OCC(=O)Nc2ccc(Cl)c(S(=O)(=O)N(C)C)c2)c1OC
AC50 (CAAX prenyl protease 2): 20.9 µM (active)

CCCC[N+](C)(C)CCC(=O)NC(C)(C)CS(=O)(=O)[O-]
EC50 [13]: 4.53 µM (active)

CCOc1ccc2nc(NS(=O)(=O)Cc3ccccc3)sc2c1
IC50 (HEK293): > 67.5 µM (inactive) | IC50 [14]: > 67.5 µM (inactive)

O=C(CCS(=O)(=O)c1ccc(Br)cc1)NCc1ccco1
IC50 [15]: > 50 µM (inactive) | IC50 [16]: 12.1 µM (active) | EC50 [17]: 23.4 µM (active)

C[C@@H]1CN([C@@H](C)CO)C(=O)c2cccc(NC(=O)Nc3ccc(F)cc3)c2O[C@H]1CN(C)S(=O)(=O)c1ccc(F)cc1
AC50 (INS1 [18]): 63.3 µM (active) | AC50 (INS1 [19]): 72 µM (active) | AC50 (INS1 [20]): > 195 µM (inactive)
